Data taken from patent US8685916B2, “Opioid prodrugs with heterocyclic linkers” (Signature Therapeutics, Inc., priority 2011, dated 2014).

What was measured:
[1] = Oral administration of oxycodone prodrugs co-dosed with trypsin inhibitor Compound 109 to rats; assay type: in vivo, rat
[2] = Oral administration of hydrocodone prodrugs KC-40 or KC-50 co-dosed with Compound 109 to rats; details: rats, PO
[3] = Spacer leaving group cyclization release rate in pH 7.4 phosphate buffer
[4] = Pharmacokinetics following PO administration of Compound KC-55 to rats; details: oxycodone in rat plasma, oxycodone 10 mg/kg (28 μmol/kg)
[5] = Oral administration of Compound KC-55 co-dosed with Compound 109 to rats; details: male, Sprague Dawley, rat, plasma, 36 umol/kg

## N=C(N)c1ccc2cc(OC(=O)c3ccc(N=C(N)N)cc3)ccc2c1 [Compound 109, 6-carbamimidoylnaphthalen-2-yl 4-(diaminomethyleneamino)benzoate]
[1]
  effect of co-dosed trypsin inhibitor on release of oxycodone by prodrugs KC-12 and KC-17: ability to attenuate release of oxycodone
[2]
  effect of co-dosed trypsin inhibitor on release of hydrocodone by prodrugs KC-40 and KC-50: ability to attenuate release of hydrocodone

## COc1ccc2c3c1O[C@H]1C(OC(=O)N4CCCC[C@@H]4CN)=CC[C@@]4(O)[C@@H](C2)N(C)CC[C@]314 [Compound KC-18, N-(oxycodone-6-enol-carbonyl)-R-(piperidine-2-methylamine)]
[3]
  half-life at 2.18 mM: 52.5 ± 0.96 min

## COc1ccc2c3c1O[C@H]1C(=O)CC[C@@]4(O)[C@@H](C2)N(C)CC[C@]314 [Oxycodone, oxycodone]
[4]
  OC Cmax ± sd: 14.7 ± 6.5^ ng/mL
[5]
  Cmax: 18.8 ng/mL
